In patent publication US20260297542A1, “HERBICIDE RESISTANT PLANTS” (SYNGENTA CROP PROTECTION AG, priority 2023, published 2026):
Positions count from the first letter of the chain named.

Experiments:
Assay in all cases: E. coli hemG growth inhibition by herbicide, AtPPO1 variant
Assay type in all cases: cell-based
Details in all cases: read-out: percentage growth inhibition
AtPPO1 K281E = biological target: T1, AtPPO1 K281E (Arabidopsis thaliana, UniProt P55826, K281E)
T1 construct: expressed in transfected cells; host or cells: E. coli BL21(DE3) hemG (hemG replaced by CmR), pET24a plasmid
T1 sequence (P55826 35-537 K281E): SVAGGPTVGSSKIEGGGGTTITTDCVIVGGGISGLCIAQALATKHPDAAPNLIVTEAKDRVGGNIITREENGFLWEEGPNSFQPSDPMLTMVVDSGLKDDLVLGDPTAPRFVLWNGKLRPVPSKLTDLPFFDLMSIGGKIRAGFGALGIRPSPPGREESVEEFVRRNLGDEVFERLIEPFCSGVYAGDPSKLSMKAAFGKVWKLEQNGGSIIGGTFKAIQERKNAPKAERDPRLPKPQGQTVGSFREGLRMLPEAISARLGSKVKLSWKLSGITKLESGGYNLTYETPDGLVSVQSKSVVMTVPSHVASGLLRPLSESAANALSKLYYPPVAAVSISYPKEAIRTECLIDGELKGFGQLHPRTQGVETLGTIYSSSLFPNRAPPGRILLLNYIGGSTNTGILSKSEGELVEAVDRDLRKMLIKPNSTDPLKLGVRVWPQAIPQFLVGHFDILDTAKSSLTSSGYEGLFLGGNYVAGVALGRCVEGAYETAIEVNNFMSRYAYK
In short: (§1)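 Read-out is OD600 at 24 h post inoculation, converted to percent growth inhibition relative to DMSO. The hemG-deleted BL21(DE3) host relied on the plasmid-borne AtPPO1 variant, induced with 0.1 mM IPTG, with 6.25 ppm herbicide 0 or E or 0.78 ppm herbicide B present at 37° C.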

AtPPO1 Y362C = biological target: T2, AtPPO1 Y362C (Arabidopsis thaliana, UniProt P55826, Y362C)
T2 construct: expressed in transfected cells; host or cells: E. coli BL21(DE3) hemG, pET24a plasmid
T2 sequence (P55826 35-537 Y362C): T1 sequence (P55826 35-537 K281E) with E247K, Y328C
In short: as §1

AtPPO1 Y361P = biological target: T3, AtPPO1 Y361P (Arabidopsis thaliana, UniProt P55826, Y361P)
T3 construct: expressed in transfected cells; host or cells: E. coli BL21(DE3) hemG (pET24a, T7 promoter)
T3 sequence (P55826 35-537 Y361P): T1 sequence (P55826 35-537 K281E) with E247K, Y327P
In short: as §1

AtPPO1 K281C = biological target: T4, AtPPO1 K281C (Arabidopsis thaliana, UniProt P55826, K281C)
T4 construct: expressed in transfected cells; host or cells: E. coli BL21(DE3) hemG (hemG replaced by CmR), pET24a plasmid
T4 sequence (P55826 35-537 K281C): T1 sequence (P55826 35-537 K281E) with E247C
In short: as §1

| SMILES | inhibition at 6.25 ppm (AtPPO1 K281E) [%] | inhibition at 6.25 ppm (AtPPO1 Y362C) [%] | inhibition at 6.25 ppm (AtPPO1 Y361P) [%] | inhibition at 6.25 ppm (AtPPO1 K281C) [%] | inhibition at 0.78 ppm (AtPPO1 K281E) [%] | inhibition at 0.78 ppm (AtPPO1 Y362C) [%] | inhibition at 0.78 ppm (AtPPO1 Y361P) [%] | inhibition at 0.78 ppm (AtPPO1 K281C) [%] |
| --- | --- | --- | --- | --- | --- | --- | --- | --- |
| CCOC(=O)[C@]1(C)CC(c2cc(-n3c(=O)n(C)c(=S)n(C)c3=O)c(F)cc2Cl)=NO1 [Herbicide D, ethyl (5S)-3-[2-chloro-5-(3,5-dimethyl-2,6-dioxo-4-thioxo-1,3,5-triazinan-1-yl)-4-fluoro-phenyl]-5-methyl-4H-isoxazole-5-carboxylate] | 33 | 43 | 36 | 33 |  |  |  |  |
| C#CCN1C(=O)C(F)(F)Oc2cc(F)c(-n3c(=O)n(C)c(=S)n(C)c3=O)cc21 [Herbicide B, trifludimoxazin] |  |  |  |  | 37 | 37 | 28 | 35 |
| CC(C)N(C)S(=O)(=O)NC(=O)c1cc(-n2c(=O)cc(C(F)(F)F)n(C)c2=O)c(F)cc1Cl [Herbicide E, saflufenacil] | 61 | 58 | 38 | 54 |  |  |  |  |
